One assay has as its target aggrecanase. The assay can be described thus: Effect on the aggrecanase in synovial fluids or on preparations of recombinant ADAMTS protein (BC-3 ELISA, Agg1mut substrate). It counts as biochemical. As to the method:
Effect of the carboxyl-reduced derivatives on the aggrecanase in synovial fluids or on preparations of recombinant ADAMTS protein.
The analysis is carried out on 96-well plates.
In each well, a fixed volume of synovial fluid or aggrecanase activity generating a known increase, between 1.0 and 1.4 absorbance units (405 nm), under the conditions of the analysis, is mixed with 3 μl of solution of compound from the respective dilution step. Dulbecco's modified Eagle's medium (DMEM) is added to each well to give a final volume of 300 μl. The plate is then incubated for 1 hour at 37° C. in a carbon dioxide atmosphere.
After the addition of 5 μl of a solution of […] of recombinant substrate Agglmut in DMEM to each well (substrate as described by Bartnik E. et al., EP 785274, 1997), the reagent mixture is incubated for 4 hours at 37° C. under a carbon dioxide atmosphere.
In a first step, the microplate is coated with 100 μl per well of a commercial goat anti-mouse IgG antibody for 1 hour at ambient temperature (5 μg/ml in a phosphate buffered saline solution, pH 7.4 [PBS buffer]). After washing with the PBS buffer containing 0.1% of Tween-20 (washing buffer), the wells are blocked by means of a step consisting of a one hour incubation with 100 μl per well of 5% bovine serum albumin in a PBS buffer containing 0.05% of Tween-20. Following another rinse with the washing buffer, each well is incubated with 100 μl of a solution, diluted to 1:1000, of BC-3 antibody in a PBS buffer containing 0.05% of Tween 20 and 0.5% of bovine serum albumin, at ambient temperature for one hour. This antibody recognizes the typical aggrecanase cleavage fragments (Hughes C. E. et al., Biochem. J. 305 (3), 799-804, 1995).
After another rinse of the analytical plate with the washing buffer, the complete set of mixtures originating from the preceding digestion is transferred to this plate, well by well, and incubated at ambient temperature for one hour. The plate is again washed as above. Next, 100 μl of the second antibody (anti-human IgG antibody labeled with peroxidase, 1:1000 in PBS containing 0.5% of BSA and 0.05% of Tween-20) are added to each well, with subsequent incubation at ambient temperature again for one hour. After a final rinse with the washing buffer, the color development is initiated by adding 100 μl of ABTS substrate solution (2 mg/ml, 2,2′-azinobis(3-ethyl-benzothiazoline)sulfonic acid) in 40 mM of sodium citrate plus 60 mM of disodium hydrogen phosphate, adjusted to a pH of 4.4 by adding acetic acid; 0.25 μl of 35% hydrogen peroxide added per ml immediately before measurement). […] The development is stopped as soon as the maximum signal (405 nm) in the absorbance range of 1.0 to 1.4 is reached.
In general terms: In an ELISA, binding on a coated surface is turned into a signal by an enzyme label.

Assay [1] addresses T1, human neutrophil elastase (Homo sapiens, UniProt P08246).
T1 sequence (P08246 30-267): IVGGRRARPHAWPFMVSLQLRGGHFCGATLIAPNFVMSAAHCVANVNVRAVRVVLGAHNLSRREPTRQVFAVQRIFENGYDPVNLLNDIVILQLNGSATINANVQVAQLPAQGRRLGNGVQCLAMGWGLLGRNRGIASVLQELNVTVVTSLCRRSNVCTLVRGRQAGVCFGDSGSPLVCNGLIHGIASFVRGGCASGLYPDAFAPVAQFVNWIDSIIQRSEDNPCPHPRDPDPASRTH
Procedure: A commercially available enzyme (for example, human neutrophil elastase, sigma No. E8140) is reconstituted in aliquots of 0.1 mg per vial with 0.276 ml of 50 mM sodium acetate buffer, pH 5.5, containing 200 mM NaCl (stock solution of the enzyme); 11 μl of this stock solution are diluted with 1.1 ml of the HEPES buffer above (enzyme assay solution).
The substrate solution is prepared by dissolving 118 mg of methoxy-succinyl-L-Ala-L-Ala-L-Pro-L-Val-p-nitro-anilide in 1 ml of DMSO (stock solution, for example sigma No. M4765). In view of the application in the analysis, 9 μl of stock solution are then diluted in 1.19 ml of water.
The serial dilutions of the assay compounds are prepared in 100 mM of HEPES buffer containing 500 mM NaCl. The analysis is carried out on colorless 96-well polystyrene microplates (for example, Corning Costar, No. 3695).
10 μl of assay enzyme solution are mixed with 10 μl of the respective diluted compound solution and 10 μl of the substrate solution. After incubation for 15 min, the cleavage of the substrate is read as increase in absorbance at 405 nm.

Assay [2] has as its target T2, bovine factor Xa (Bos taurus, UniProt P00743). Particulars: calibrated against Enoxaparin. As to the method:
For the calibration, a standard sample of low molecular weight heparin (Enoxaparin) was used as reference.
The serial dilutions of the assay compound are prepared in a 0.046 M Tris buffer, pH 8.4, containing 0.15 M NaCl, 0.007 M EDTA, 0.1% of Tween 80 and 0.12 IU/ml of human antithrombin III. The samples of 50 μl of the respective dilutions are incubated with 50 μl of bovine factor Xa (13.6 U/ml) at 37° C. for 80 seconds. Next, 50 μl of chromogenic substrate, 1.1 mM S-2765, are added. […] The activity of the deblocked factor Xa is indicated by the emission of p-nitroaniline from the substrate.

For assay [3], the target named is T2, bovine factor Xa. Particulars: calibration reference; cited from earlier work.

A word on the IC50: it is the concentration at which inhibition is half-maximal. A high value points to a need for much substance.

T2 sequence (P00743 234-492 limits assumed): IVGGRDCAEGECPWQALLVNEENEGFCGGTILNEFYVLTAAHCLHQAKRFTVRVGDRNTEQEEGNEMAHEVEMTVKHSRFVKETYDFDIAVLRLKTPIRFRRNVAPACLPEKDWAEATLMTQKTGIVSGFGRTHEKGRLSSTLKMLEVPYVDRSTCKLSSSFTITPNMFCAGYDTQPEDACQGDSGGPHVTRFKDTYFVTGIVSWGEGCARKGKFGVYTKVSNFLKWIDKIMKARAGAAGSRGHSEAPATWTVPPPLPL

Turning to “Carboxyl-Reduced Hyaluronic Acid Sodium Salt [example 1]”, on aggrecanase, the “IC50 (μg/ml) for inhibition” value is “no”. In addition, the “% conversion” value in the assay with aggrecanase (glycosaminoglycan 0.0001 μg/ml), with aggrecanase (glycosaminoglycan 0.001 μg/ml), in the assay on aggrecanase (glycosaminoglycan 0.01 μg/ml), in the assay with aggrecanase (glycosaminoglycan 0.1 μg/ml), in the assay on aggrecanase (glycosaminoglycan 1 μg/ml) and with aggrecanase (glycosaminoglycan 10 μg/ml) was 100% each time.
Substance “Carboxyl-Reduced and Persulfated Hyaluronic Acid Sodium Salt [example 3]” displayed an IC50 in assay [1] of 7.0 µg/mL. Moreover, the “IC50 (μg/ml) for inhibition” value on aggrecanase is 0.025 µg/mL. For the same substance, the “% conversion” value in the assay with aggrecanase (glycosaminoglycan 0.0001 μg/ml) stood at 93%; in the assay on aggrecanase (glycosaminoglycan 0.001 μg/ml), 84.9%; in the assay with aggrecanase (glycosaminoglycan 0.01 μg/ml), 54.3%; in the assay with aggrecanase (glycosaminoglycan 0.1 μg/ml), 28%; in the assay on aggrecanase (glycosaminoglycan 1 μg/ml), 27.4%; with aggrecanase (glycosaminoglycan 10 μg/ml) it was 21%. For the same substance, the “factor Xa inhibitory activity” value on bovine factor Xa [2] was 1.75 U/mg.
Consider Enoxaparin, for which the “factor Xa inhibitory activity of the reference standard” value at bovine factor Xa [3] was 100 U/mg.
For hyaluronic acid [reference compound], the aggrecanase-inhibiting activity entry in the assay on aggrecanase was “no aggrecanase-inhibiting activity”.

The values above are taken from patent US20050203056A1, “Carboxyl-reduced derivatives of hyaluronic acid, preparation thereof, use thereof as a medicinal product and the pharmaceutical compositions containing them” (Aventis Pharma S.A., priority 2003, published 2005).
